# Results from patent US12435060B2, “Acylamino bridged heterocyclic compound, and composition and application thereof” (BEIJING SCITECH-MQ PHARMACEUTICALS LIMITED, priority 2019, dated 2025).
# pIC50: −log10 of the molar value.
# System: HT29 cells
# Test: Inhibition of cell necrosis (CCK8 method), induced programmed necrosis of HT29 cells
# Format: cell-based
# Details: Homo sapiens, HT-29; rescue from necrosis induced by TNF-α 20 ng/mL, AT-406 1 μM, Z-VAD-FMK 20 μM; 16-20 hours; CCK-8, OD 450 nm
# Method in brief: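 Rescue from programmed necrosis was scored by CCK-8 absorbance at 450 nm after 16-20 h of TNF-α (20 ng/mL), AT-406 (1 μM) and Z-VAD-FMK (20 μM) at 37 °C, 5% CO2. HT29 cells had received compound 30 min earlier across nine 4-fold dilutions (top 25000 nM final). IC50 came from % inhibition relative to uninduced and induced-only wells.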
row,SMILES,pIC50
1,"Cc1ccc(OCCCC(C)(C)O)cc1-c1ccnc(NC(=O)c2nnc(Cc3cc(F)cc(C(F)(F)F)c3)[nH]2)c1 [Example 213, 5-(3-fluoro-5-trifluoromethylbenzyl)-N-(4-(5-((4-hydroxy-4-methylpentyl)oxy)-2-methylphenyl)pyridin-2-yl)-4H-1,2,4-triazole-3-carboxamide]",5.00 to 6.00
2,"Cc1ncccc1-c1ccnc(NC(=O)c2nnc(Cc3ccccc3)[nH]2)c1 [Example 20, 5-benzyl-N-(2-methyl-[3,4′-bipyridin]-2′-yl)-4H-1,2,4-triazole-3-carboxamide]",6.00 to 7.00
3,"CC(C)(O)CCCOc1ccc(Cl)c(-c2ccnc(NC(=O)c3nnc(CC4CCCC4)[nH]3)c2)c1 [Example 356, N-(4-(2-chloro-5-((4-hydroxy-4-methylpentyl)oxy)phenyl)pyridin-2-yl)-5-(cyclopentylmethyl)-4H-1,2,4-triazole-3-carboxamide]",≥ 7.00
4,"Cc1ccc(OCCCC(C)(C)O)cc1-c1ccnc(NC(=O)c2nnc(CC3CCC(F)(F)CC3)[nH]2)c1 [Example 178, 5-((4,4-difluorocyclohexyl)methyl)-N-(4-(5-((4-hydroxy-4-methylpentyl)oxy)-2-methylphenyl)pyridin-2-yl)-4H-1,2,4-triazole-3-carboxamide]",≥ 7.00
5,"Cc1ccc(OCCC2CCOCC2)cc1-c1cc(NC(=O)c2nnc(Cc3ccccc3F)[nH]2)ncc1Cl [Example 251, N-(5-chloro-4-(2-methyl-5-(2-(tetrahydro-2H-pyran-4-yl)ethoxy)phenyl)pyridin-2-yl)-5-(2-fluorobenzyl)-4H-1,2,4-triazole-3-carboxamide]",≥ 7.00
6,"Cc1ccc(C2CCOCC2)cc1-c1ccnc(NC(=O)c2nnc(Cc3ccccc3)[nH]2)c1 [Example 479, 5-benzyl-N-(4-(2-methyl-5-(tetrahydro-2H-pyran-4-yl)phenyl)pyridin-2-yl)-4H-1,2,4-triazole-3-carboxamide]",6.00 to 7.00
7,"COCCCOc1ccc(Cl)c(-c2ccnc(NC(=O)c3nnc(Cc4ccccc4F)[nH]3)c2)c1 [Example 396, 5-(2-fluorobenzyl)-N-(4-(2-chloro-5-(3-methoxypropoxy)phenyl)pyridin-2-yl)-4H-1,2,4-triazole-3-carboxamide]",≥ 7.00
8,"CC(C)(O)CCCOc1ccc(F)c(-c2ccnc(NC(=O)c3nnc(Cc4ccccc4)[nH]3)c2)c1 [Example 312, 5-benzyl-N-(4-(2-fluoro-5-((4-hydroxy-4-methylpentyl)oxy)phenyl)pyridin-2-yl)-4H-1,2,4-triazole-3-carboxamide]",6.00 to 7.00
9,"COCCCOc1ccc(C)c(-c2ccnc(NC(=O)c3nnc(Cc4ccccc4)[nH]3)c2)c1 [Example 141, 5-benzyl-N-(4-(5-(3-methoxypropoxy)-2-methylphenyl)pyridin-2-yl)-4H-1,2,4-triazole-3-carboxamide]",≥ 7.00
10,"COCCOc1ccc(C(F)(F)F)c(-c2ccnc(NC(=O)c3nnc(CC4CCCC4)[nH]3)c2)c1 [Example 281, 5-(cyclopentylmethyl)-N-(4-(5-(2-methoxyethoxy)-2-(trifluoromethyl)phenyl)pyridin-2-yl)-4H-1,2,4-triazole-3-carboxamide]",≥ 7.00
11,"O=C(Nc1cc(C2CCCCC2)ccn1)c1nnc(Cc2ccccc2)[nH]1 [Example 48, 5-benzyl-N-(4-cyclohexylpyridin-2-yl)-4H-1,2,4-triazole-3-carboxamide]",< 5.00
12,"CCc1ccc(F)c(Cc2nnc(C(=O)Nc3cc(-c4cc(OCCCC(C)(C)O)ccc4Cl)ccn3)[nH]2)c1 [Example 350, N-(4-(2-chloro-5-((4-hydroxy-4-methylpentyl)oxy)phenyl)pyridin-2-yl)-5-(5-ethyl-2-fluorobenzyl)-4H-1,2,4-triazole-3-carboxamide]",6.00 to 7.00
13,"COCCCOc1ccc(Cl)c(-c2ccnc(NC(=O)c3nnc(CC4CCCC4)[nH]3)c2)c1 [Example 397, N-(4-(2-chloro-5-(3-methoxypropoxy)phenyl)pyridin-2-yl)-5-(cyclopentylmethyl)-4H-1,2,4-triazole-3-carboxamide]",≥ 7.00
14,"CC(C)(O)COc1ccc(Cl)c(-c2ccnc(NC(=O)c3nnc(Cc4ccccc4)[nH]3)c2)c1 [Example 363, 5-benzyl-N-(4-(2-chloro-5-(2-hydroxyl-2-methylpropoxy)phenyl)pyridin-2-yl)-4H-1,2,4-triazole-3-carboxamide]",≥ 7.00
15,"O=C(Nc1cc(-c2cc(OCCCCO)ccc2Cl)ccn1)c1nnc(Cc2ccccc2)[nH]1 [Example 371, 5-benzyl-N-(4-(2-chloro-5-(4-hydroxybutoxy)phenyl)pyridin-2-yl)-4H-1,2,4-triazole-3-carboxamide]",≥ 7.00
16,"COCCOc1ccc(Cl)c(-c2ccnc(NC(=O)c3nnc(Cc4ccccc4F)[nH]3)c2)c1 [Example 380, 5-(2-fluorobenzyl)-N-(4-(2-chloro-5-(2-methoxyethoxy)phenyl)pyridin-2-yl)-4H-1,2,4-triazole-3-carboxamide]",≥ 7.00
17,"CCc1cc(-c2ccnc(NC(=O)c3nnc(Cc4ccccc4)[nH]3)c2)c(OC)cn1 [Example 63, 5-benzyl-N-(2′-ethyl-5′-methoxy-[4,4′-bipyridin]-2-yl)-4H-1,2,4-triazole-3-carboxamide]",5.00 to 6.00

row,SMILES,pIC50
1,"O=C(Nc1cc(-c2cc(OCCC3CCOCC3)ccc2Cl)ccn1)c1nnc(CC2CCCCC2)[nH]1 [Example 406, N-(4-(2-chloro-5-(2-(tetrahydro-2H-pyran-4-yl)ethoxy)phenyl)pyridin-2-yl)-5-(cyclohexylmethyl)-4H-1,2,4-triazole-3-carboxamide]",≥ 7.00
2,"COCCN(C)c1ccc(C)c(-c2ccnc(NC(=O)c3nnc(Cc4ccccc4)[nH]3)c2)c1 [Example 55, 5-benzyl-N-(4-(5-((2-methoxyethyl)(methyl)amino)-2-methylphenyl)pyridin-2-yl)-4H-1,2,4-triazole-3-carboxamide]",6.00 to 7.00
3,"Cc1ccc(OCCCN(C)C)cc1-c1ccnc(NC(=O)c2nnc(Cc3ccccc3)[nH]2)c1 [Example 139, 5-benzyl-N-(4-(5-(3-(dimethylamino)propoxy)-2-methylphenyl)pyridin-2-yl)-4H-1,2,4-triazole-3-carboxamide]",< 5.00
4,"CCCCCCCCOc1ccc(C)c(-c2ccnc(NC(=O)c3nnc(Cc4ccccc4)[nH]3)c2)c1 [Example 100, 5-benzyl-N-(4-(2-methyl-5-(octyloxy)phenyl)pyridin-2-yl)-4H-1,2,4-triazole-3-carboxamide]",6.00 to 7.00
5,"Cc1ccc(NC(=O)CCC(C)(C)O)cc1-c1ccnc(NC(=O)c2nnc(Cc3ccccc3)[nH]2)c1 [Example 489, 5-benzyl-N-(4-(5-(4-hydroxy-4-methylvaleramido)-2-methylphenyl)pyridin-2-yl)-4H-1,2,4-triazole-3-carboxamide]",6.00 to 7.00
6,"O=C(Nc1cc(-c2ccccc2C2CC2)ccn1)c1nnc(Cc2ccccc2)[nH]1 [Example 8, 5-benzyl-N-(4-(2-cyclopropylphenyl)pyridin-2-yl)-4H-1,2,4-triazole-3-carboxamide]",5.00 to 6.00
7,"O=C(Nc1cc(-c2cc(OCCCCCO)ccc2Cl)ccn1)c1nnc(Cc2ccccc2)[nH]1 [Example 375, 5-benzyl-N-(4-(2-chloro-5-((5-hydroxypentyl)oxy)phenyl)pyridin-2-yl)-4H-1,2,4-triazole-3-carboxamide]",≥ 7.00
8,"CCOc1ncccc1-c1ccnc(NC(=O)c2nnc(Cc3ccccc3)[nH]2)c1 [Example 22, 5-benzyl-N-(2-ethoxy-[3,4′-bipyridin]-2′-yl)-4H-1,2,4-triazole-3-carboxamide]",5.00 to 6.00
9,Cc1ccc(OCCOC(C)(C)C)cc1-c1ccnc(NC(=O)c2nnc(CC3CCCC3)o2)c1 [Example 76],< 5.00
10,"O=C(Nc1cc(-c2cc(OCCCCO)ccc2C(F)(F)F)ccn1)c1nnc(CC2CCCC2)[nH]1 [Example 274, 5-(cyclopentylmethyl)-N-(4-(5-(4-hydroxybutoxy)-2-(trifluoromethyl)phenyl)pyridin-2-yl)-4H-1,2,4-triazole-3-carboxamide]",≥ 7.00
11,"CC(C)(O)CCCCOc1ccc(Cl)c(-c2cc(NC(=O)c3nnc(Cc4ccccc4F)[nH]3)ncc2F)c1 [Example 419, N-(4-(2-chloro-5-((5-hydroxyl-5-methylhexyl)oxy)phenyl)-5-fluoropyridin-2-yl)-5-(2-fluorobenzyl)-4H-1,2,4-triazole-3-carboxamide]",≥ 7.00
12,"CC(C)(C)OCCOc1ccc(C=O)c(-c2ccnc(NC(=O)c3nnc(Cc4ccccc4)[nH]3)c2)c1 [Example 195, 5-benzyl-N-(4-(5-(2-(tert-butoxy)ethoxy)-2-formylphenyl)pyridin-2-yl)-4H-1,2,4-triazole-3-carboxamide]",≥ 7.00
13,"Cc1ccc(OCC2CCCCO2)cc1-c1ccnc(NC(=O)c2nnc(Cc3ccccc3)[nH]2)c1 (stereo not drawn) [Example 123, 5-benzyl-N-(4-(2-methyl-5-((tetrahydro-2H-pyran-2-yl)methoxy)phenyl)pyridin-2-yl)-4H-1,2,4-triazole-3-carboxamide]",≥ 7.00
14,"CC(C)(O)CCCOc1ccc(Cl)c(-c2ccnc(NC(=O)c3nnc(Cc4cc(Cl)ccc4F)[nH]3)c2)c1 [Example 340, 5-(5-chloro-2-fluorobenzyl)-N-(4-(2-chloro-5-((4-hydroxy-4-methylpentyl)oxy)phenyl)pyridin-2-yl)-4H-1,2,4-triazole-3-carboxamide]",6.00 to 7.00
15,"O=C(Nc1cc(-c2cccc3c2CCC3)ccn1)c1nnc(Cc2ccccc2)[nH]1 [Example 39, 5-benzyl-N-(4-(2,3-dihydro-1H-inden-4-yl)pyridin-2-yl)-4H-1,2,4-triazole-3-carboxamide]",5.00 to 6.00
16,"O=C(Nc1cc(-c2cc(OCCC3CCOCC3)ccc2C(F)(F)F)ccn1)c1nnc(Cc2ccccc2F)[nH]1 [Example 306, 5-(2-fluorobenzyl)-N-(4-(5-(2-(tetrahydro-2H-pyran-4-yl)ethoxy)-2-(trifluoromethyl)phenyl)pyridin-2-yl)-4H-1,2,4-triazole-3-carboxamide]",≥ 7.00
